Test results: ChEMBL document CHEMBL4610040, “Addressing hERG activity while maintaining favorable potency, selectivity and pharmacokinetic properties of PPARδ modulators” (Bioorg Med Chem Lett, 2020)
Values belong to the compound of their own block, whether it stands above or below them.

Tests used:
hERG (KCNH2) = hERG (KCNH2) (Homo sapiens, UniProt Q12809); experiment: Inhibition of human ERG expressed in HEK293 cells at 10 uM by semi-automatic patch clamp assay relative to control; assay type: cell-based; conditions: HEK293 cells that express hERG
[1] = target: T1, Peroxisome proliferator-activated receptor alpha (Homo sapiens, UniProt Q07869); experiment: Transactivation of GAL4-fused human PPARalpha expressed in African green monkey CV1 cells by luciferase reporter gene assay; assay type: cell-based, CV-1
T1 sequence (Q07869 whole entry): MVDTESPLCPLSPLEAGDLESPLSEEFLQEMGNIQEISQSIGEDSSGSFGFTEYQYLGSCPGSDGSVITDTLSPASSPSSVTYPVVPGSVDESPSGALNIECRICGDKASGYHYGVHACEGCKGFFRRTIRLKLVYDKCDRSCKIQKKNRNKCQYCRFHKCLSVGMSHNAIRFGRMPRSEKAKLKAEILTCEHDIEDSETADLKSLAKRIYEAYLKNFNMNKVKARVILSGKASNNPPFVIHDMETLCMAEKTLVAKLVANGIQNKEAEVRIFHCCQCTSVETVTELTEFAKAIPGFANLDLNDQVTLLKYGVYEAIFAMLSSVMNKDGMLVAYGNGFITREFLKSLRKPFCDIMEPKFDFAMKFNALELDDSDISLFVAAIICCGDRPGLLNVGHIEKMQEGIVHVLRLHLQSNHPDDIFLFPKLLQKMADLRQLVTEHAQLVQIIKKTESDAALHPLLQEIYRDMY

[2] = target: T2, Peroxisome proliferator-activated receptor gamma (Homo sapiens, UniProt P37231); experiment: Transactivation of GAL4-fused human PPARgamma expressed in African green monkey CV1 cells by luciferase reporter gene assay; assay type: cell-based, CV-1
T2 sequence (P37231 whole entry): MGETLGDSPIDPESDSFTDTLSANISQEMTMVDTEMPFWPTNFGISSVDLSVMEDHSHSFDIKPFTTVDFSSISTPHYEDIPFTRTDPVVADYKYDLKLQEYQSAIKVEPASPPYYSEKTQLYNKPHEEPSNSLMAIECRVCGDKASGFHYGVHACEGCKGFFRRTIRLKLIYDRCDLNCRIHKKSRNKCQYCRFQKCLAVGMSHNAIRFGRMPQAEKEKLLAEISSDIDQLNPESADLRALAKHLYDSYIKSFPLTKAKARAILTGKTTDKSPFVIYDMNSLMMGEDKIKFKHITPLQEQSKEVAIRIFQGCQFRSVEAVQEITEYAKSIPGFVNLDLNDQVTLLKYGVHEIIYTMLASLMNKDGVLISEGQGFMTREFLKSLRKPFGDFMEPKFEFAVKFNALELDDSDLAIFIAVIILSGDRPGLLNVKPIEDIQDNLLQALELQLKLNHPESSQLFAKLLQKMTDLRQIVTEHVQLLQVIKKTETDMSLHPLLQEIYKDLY

[3] = AUC (0 to infinity) in CD-1 mouse at 1 mg/kg, iv or 3 mg/kg, po; assay type: ADME, organism-based; conditions: in vivo
[4] = Elimination half life in CD-1 mouse at 1 mg/kg, iv or 3 mg/kg, po; assay type: ADME, organism-based; conditions: in vivo, read-out: beta t1/2 (converted)
[5] = Oral bioavailability in CD-1 mouse at 3 mg/kg; assay type: ADME, organism-based; conditions: in vivo
[6] = target: Voltage-gated inwardly rectifying potassium channel KCNH2 (Homo sapiens, UniProt Q12809); experiment: Inhibition of human ERG expressed in HEK293 cells by semi-automatic patch clamp assay; assay type: cell-based
Sequence of Voltage-gated inwardly rectifying potassium channel KCNH2 (Q12809 whole entry): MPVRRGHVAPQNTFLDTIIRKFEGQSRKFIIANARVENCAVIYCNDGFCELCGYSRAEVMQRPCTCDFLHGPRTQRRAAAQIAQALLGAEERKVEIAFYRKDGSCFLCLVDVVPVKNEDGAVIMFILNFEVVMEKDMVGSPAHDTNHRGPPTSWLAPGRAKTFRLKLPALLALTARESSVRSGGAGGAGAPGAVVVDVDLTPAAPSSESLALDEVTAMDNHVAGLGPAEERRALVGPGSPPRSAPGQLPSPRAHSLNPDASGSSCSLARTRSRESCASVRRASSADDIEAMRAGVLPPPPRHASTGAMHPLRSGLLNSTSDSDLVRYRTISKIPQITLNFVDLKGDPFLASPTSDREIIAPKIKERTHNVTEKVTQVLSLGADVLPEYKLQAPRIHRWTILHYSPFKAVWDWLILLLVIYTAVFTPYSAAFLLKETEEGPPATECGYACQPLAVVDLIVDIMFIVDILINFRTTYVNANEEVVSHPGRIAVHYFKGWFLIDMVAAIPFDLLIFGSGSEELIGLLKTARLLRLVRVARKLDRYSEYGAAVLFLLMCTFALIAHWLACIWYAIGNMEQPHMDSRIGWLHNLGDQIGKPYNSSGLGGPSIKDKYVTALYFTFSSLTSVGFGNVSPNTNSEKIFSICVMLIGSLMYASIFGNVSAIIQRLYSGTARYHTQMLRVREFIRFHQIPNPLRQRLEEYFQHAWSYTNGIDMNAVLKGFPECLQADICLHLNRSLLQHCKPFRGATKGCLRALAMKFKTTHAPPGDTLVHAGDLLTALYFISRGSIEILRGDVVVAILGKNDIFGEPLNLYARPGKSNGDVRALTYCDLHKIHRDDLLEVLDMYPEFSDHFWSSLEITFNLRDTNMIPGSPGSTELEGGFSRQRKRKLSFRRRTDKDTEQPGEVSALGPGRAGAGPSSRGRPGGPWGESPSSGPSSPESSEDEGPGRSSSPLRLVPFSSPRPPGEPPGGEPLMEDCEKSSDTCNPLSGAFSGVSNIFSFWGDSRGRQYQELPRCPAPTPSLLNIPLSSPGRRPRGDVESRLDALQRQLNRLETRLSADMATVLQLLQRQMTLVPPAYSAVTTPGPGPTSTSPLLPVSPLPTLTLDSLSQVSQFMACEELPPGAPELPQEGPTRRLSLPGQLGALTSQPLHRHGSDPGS

Sequence of hERG (KCNH2) (Q12809 whole entry, the tested form may be a part): as the sequence (Q12809 whole entry) above

SMILES: CN(Cc1ccccc1OCCCCCC(=O)O)C(=O)c1ccc(-c2ccco2)cc1
inhibition at 10 µM (hERG (KCNH2)): < 15%

SMILES: C/C(=C\COc1ccccc1Cc1sc(C)nc1-c1ccc2oc(C)cc2c1)CCC(=O)O
inhibition at 10 µM (hERG (KCNH2)): 14%

SMILES: Cc1cc2cc(-c3ncc(C)n3Cc3ccccc3OCCCCCC(=O)O)ccc2o1
inhibition at 10 µM (hERG (KCNH2)): 51%

SMILES: Cc1cnc(-c2ccc(C#N)cc2)n1Cc1ccccc1OCCC[C@@H](C)CC(=O)O
inhibition at 10 µM (hERG (KCNH2)): 15%

EC50 [1]: > 100 µM
EC50 [2]: > 100 µM
AUC(0-inf) [3]: 3880 ng·h/mL
half-life [4]: 3.5 h
bioavailability [5]: 100%
SMILES: C[C@H](CCCOc1ccccc1Cn1c(Cl)cnc1-c1ccc(C(F)(F)F)cc1)CC(=O)O

SMILES: Cc1cnc(-c2ccc(-c3ccco3)cc2)n1Cc1ccccc1OCCCCCC(=O)O
IC50 [6]: 5.5 µM

SMILES: Cc1nc(-c2cc(F)c(-c3ccco3)c(F)c2)c(Cc2ccccc2OCCC[C@@H](C)CC(=O)O)s1
inhibition at 10 µM (hERG (KCNH2)): 4%

SMILES: C/C(=C\COc1ccccc1Cc1c(C)cnn1-c1ccc(C(F)(F)F)cc1)CCC(=O)O
inhibition at 10 µM (hERG (KCNH2)): 4%

EC50 [1]: > 100 µM
EC50 [2]: > 100 µM
AUC(0-inf) [3]: 14700 ng·h/mL
SMILES: C[C@H](CCCOc1ccccc1Cn1c(C(F)(F)F)cnc1-c1ccc(C#N)cc1)CC(=O)O
inhibition at 10 µM (hERG (KCNH2)): 4%

EC50 [1]: > 100 µM
EC50 [2]: > 100 µM
AUC(0-inf) [3]: 6960 ng·h/mL
half-life [4]: 5.8 h
bioavailability [5]: 70%
SMILES: C[C@H](CCCOc1ccccc1Cn1c(C(F)(F)F)cnc1-c1ccc(C(F)(F)F)cc1)CC(=O)O
inhibition at 10 µM (hERG (KCNH2)): 5.7%

SMILES: Cc1cnc(-c2ccc(OC(F)(F)F)cc2)n1Cc1ccccc1OCCC[C@@H](C)CC(=O)O
IC50 [6]: 10 µM
